# Test system: peripheral blood mononuclear cells (PBMC)
# Experiment: Cytokine and immune-function gene expression of PBMC in vitro (qRT-PCR, 41 immune-related genes)
# Assay type: cell-based, human
# Procedure: After a screening visit at which blood was drawn to test for IgG antibody against HSV-1 and subjects were interviewed for inclusion/exclusion criteria, selected subjects returned for blood draws on day 1. After the blood draw on day 1, subjects in group A only were dosed with SADBE. A petrolatum donut was applied with a cotton swab to form about a 1 cm diameter donut on skin on the inner aspect of the upper arm. Then a separate cotton swab was dipped in a 2% SADBE solution (w/v) in DMSO, and the swab was then used to apply about 10-20 mg of solution over about a 1 cm diameter circle within the petrolatum donut. Immediately after application, the application site was covered with TEGADERM. Subjects were advised to remove the TEGADERM and rinse and wipe the spot three hours later. The group A subjects then returned for blood draws on days 15 and 57 and were queried about adverse events on those dates.
# PBMC were isolated using SepMate PBMC isolation tubes (Stem Cell Technologies, Vancouver, Canada) and Ficoll-Paque according to the manufacturer's instructions. PBMC were isolated and suspended in negative control medium at 2 million cells/ml. PBMC suspension (100 μL) was added to 100 μL of medium in quadruplicate in 96-well plates. The plates were prepared in advance and stored at −70° C. The wells were in five different conditions in quadruplicate with these final concentrations after addition of the 100 μL of PBMC suspension in negative control medium. • 1. Negative control in medium (RPMI with glutamine and pen/strep, supplemented with 10% human A/B serum). • 2. Medium plus 16 μg/ml protein from heat-inactivated HSV-1-infected Vero cell extracts. • 3. Medium plus heat-inactivated HSV-1 cell-free virus at a final 7.5 million pfu/ml. • 4. Medium plus Candida cell extract. (Greer item number M15A50, 20,000 pnu/ml allergenic extract mixed molds Candida albicans, was diluted 1/50 into medium). • 5. Positive control, medium plus 10 μg/ml concanavalin A.
# Two plates were created for each subject at each collection point. One plate was incubated for 2 days at 37° C. in a humidified 5% CO2 atmosphere and then RNA was isolated from the pooled contents of the 4 wells of a given condition for a specific patient, and the RNA was stored at −70° C. and subsequently used for quantitative real time PCR analysis of gene expression of 41 immune-related genes.
# As noted above, after 2 days of growth of the PBMC in a 37° C. humidified 5% CO2 incubator in a 96-well plate, four wells of a single condition (negative control, positive control, heat-inactivated HSV-1, HSV-1-infected cell extracts, or Candida extract) with cells from a single subject (200 μL in each well) were pooled, and the RNA was immediately isolated with Trizol reagent and chloroform by Qiagen RNeasy MiniElute clean up kit Qiagen cat #74204, according to manufacturer's instructions into a final volume of 13 μL, and then flash frozen on powdered dry ice, and stored at −70° C. in aliquots of 3 μL for RNA quantification and 10 μL for PCR analysis.
# RNA was preamplified with the Qiagen RT2 PreAMP cDNA synthesis kit (Ref. 330451) and custom RT2 PreAmp primer mix (Ref. 330141) starting with about 50 ng RNA according to the procedure of RT preamp cDNA synthesis handbook date March 2011, pages 17-20. The amplification reactions (final 120 μL) were frozen at −70° C. and used for qPCR analysis the next day.
# qPCR was done with the Qiagen RT PCR profiler gene analysis kit (catalog number 330451) using RT2 Sybr Green Rox qPCR Mastermix (24) (Part 330523) and Custom RT2 PCR array plates (Ref. 330171). For this 675 μL 2×RT2 SYBR green mastermix, 51 μL pre-AMP synthesis reaction, and 623 μL RNase free water were mixed, and then 25 μL of the mixture was added to 48 wells on the left or right half of the custom PCR plate. The PCR instrument was Applied Biosystems 7900HT fast real time PCR. […]
# [1] = Group A, HSV-infected cell extracts
smiles,measurement,setting,value
"CCCCOc1c(OCCCC)c(=O)c1=O [SADBE, 3,4-Dibutoxy-3-cyclobutene-1,2-dione]",Ratio of absolute IFNG gene expression in group A vs. Groups B + C pooled,"Candida, group A day 57 after SADBE",2.684
same,CCL2 ratio of PBMC absolute gene expression day 15/day 1,"Group A, Candida",0.73
same,CCL2 ratio of PBMC absolute gene expression day 57/day 1,"Group A, Candida",1.16
same,CCL3 ratio of PBMC absolute gene expression day 15/day 1,"Group A, Candida",0.33
same,CCL3 ratio of PBMC absolute gene expression day 57/day 1,"Group A, Candida",1.79
same,CCL7 ratio of PBMC absolute gene expression day 15/day 1,"Group A, Candida",0.66
same,CCL7 ratio of PBMC absolute gene expression day 57/day 1,"Group A, Candida",2.03
same,CCR5 ratio of PBMC absolute gene expression day 15/day 1,"Group A, Candida",1.16
same,CCR5 ratio of PBMC absolute gene expression day 57/day 1,"Group A, Candida",1.42
same,CD80 ratio of PBMC absolute gene expression day 15/day 1,"Group A, Candida",0.75
same,CD80 ratio of PBMC absolute gene expression day 57/day 1,"Group A, Candida",1.57
same,CXCL2 ratio of PBMC absolute gene expression day 15/day 1,"Group A, Candida",0.39
same,CXCL2 ratio of PBMC absolute gene expression day 57/day 1,"Group A, Candida",1.10
same,CXCL5 ratio of PBMC absolute gene expression day 15/day 1,"Group A, Candida",0.46
same,CXCL5 ratio of PBMC absolute gene expression day 57/day 1,"Group A, Candida",1.45
same,CXCL9 ratio of PBMC absolute gene expression day 15/day 1,"Group A, Candida",2.52
same,CXCL9 ratio of PBMC absolute gene expression day 57/day 1,"Group A, Candida",14.21
same,CXCL10 ratio of PBMC absolute gene expression day 15/day 1,"Group A, Candida",2.87
same,CXCL10 ratio of PBMC absolute gene expression day 57/day 1,"Group A, Candida",12.8
same,CXCL11 ratio of PBMC absolute gene expression day 15/day 1,"Group A, Candida",1.06
same,CXCL11 ratio of PBMC absolute gene expression day 57/day 1,"Group A, Candida",2.53
same,DDX58 ratio of PBMC absolute gene expression day 15/day 1,"Group A, Candida",1.08
same,DDX58 ratio of PBMC absolute gene expression day 57/day 1,"Group A, Candida",1.29
same,FOXP3 ratio of PBMC absolute gene expression day 15/day 1,"Group A, Candida",1.16
same,FOXP3 ratio of PBMC absolute gene expression day 57/day 1,"Group A, Candida",2.01
same,GATA3 ratio of PBMC absolute gene expression day 15/day 1,"Group A, Candida",1.12
same,GATA3 ratio of PBMC absolute gene expression day 57/day 1,"Group A, Candida",0.28
same,ICAM1 ratio of PBMC absolute gene expression day 15/day 1,"Group A, Candida",1.03
same,ICAM1 ratio of PBMC absolute gene expression day 57/day 1,"Group A, Candida",1.27
same,IFNA1 ratio of PBMC absolute gene expression day 15/day 1,"Group A, Candida",1.42
same,IFNA1 ratio of PBMC absolute gene expression day 57/day 1,"Group A, Candida",2.13
same,IFNB1 ratio of PBMC absolute gene expression day 15/day 1,"Group A, Candida",1.03
same,IFNB1 ratio of PBMC absolute gene expression day 57/day 1,"Group A, Candida",0.93
same,IFNG ratio of PBMC absolute gene expression day 15/day 1,"Group A, Candida",0.81
same,IFNG ratio of PBMC absolute gene expression day 57/day 1,"Group A, Candida",8.54
same,IL1B ratio of PBMC absolute gene expression day 15/day 1,"Group A, Candida",0.17
same,IL1B ratio of PBMC absolute gene expression day 57/day 1,"Group A, Candida",1.73
same,IL1R1 ratio of PBMC absolute gene expression day 15/day 1,"Group A, Candida",0.69
same,IL1R1 ratio of PBMC absolute gene expression day 57/day 1,"Group A, Candida",0.9
same,IL1RN ratio of PBMC absolute gene expression day 15/day 1,"Group A, Candida",1
same,IL1RN ratio of PBMC absolute gene expression day 57/day 1,"Group A, Candida",1.91
same,IL2 ratio of PBMC absolute gene expression day 15/day 1,"Group A, Candida",0.75
same,IL2 ratio of PBMC absolute gene expression day 57/day 1,"Group A, Candida",6.31
same,IL4 ratio of PBMC absolute gene expression day 15/day 1,"Group A, Candida",1.12
same,IL4 ratio of PBMC absolute gene expression day 57/day 1,"Group A, Candida",1.52
same,IL5 ratio of PBMC absolute gene expression day 15/day 1,"Group A, Candida",1.23
same,IL5 ratio of PBMC absolute gene expression day 57/day 1,"Group A, Candida",1.10
same,IL8 ratio of PBMC absolute gene expression day 15/day 1,"Group A, Candida",0.44
same,IL8 ratio of PBMC absolute gene expression day 57/day 1,"Group A, Candida",1.89
same,IL10 ratio of PBMC absolute gene expression day 15/day 1,"Group A, Candida",0.6
same,IL10 ratio of PBMC absolute gene expression day 57/day 1,"Group A, Candida",1.12
same,IL12A ratio of PBMC absolute gene expression day 15/day 1,"Group A, Candida",1.02
same,IL12A ratio of PBMC absolute gene expression day 57/day 1,"Group A, Candida",1.64
same,IL12B ratio of PBMC absolute gene expression day 15/day 1,"Group A, Candida",0.78
same,IL12B ratio of PBMC absolute gene expression day 57/day 1,"Group A, Candida",3.61
same,IL13 ratio of PBMC absolute gene expression day 15/day 1,"Group A, Candida",0.6
same,IL13 ratio of PBMC absolute gene expression day 57/day 1,"Group A, Candida",4.28
same,IL15 ratio of PBMC absolute gene expression day 15/day 1,"Group A, Candida",1.09
same,IL15 ratio of PBMC absolute gene expression day 57/day 1,"Group A, Candida",2.18
same,IL16 ratio of PBMC absolute gene expression day 15/day 1,"Group A, Candida",1.02
same,IL16 ratio of PBMC absolute gene expression day 57/day 1,"Group A, Candida",0.81
same,JAK2 ratio of PBMC absolute gene expression day 15/day 1,"Group A, Candida",1.1
same,JAK2 ratio of PBMC absolute gene expression day 57/day 1,"Group A, Candida",1.68
same,LTA ratio of PBMC absolute gene expression day 15/day 1,"Group A, Candida",1.15
same,LTA ratio of PBMC absolute gene expression day 57/day 1,"Group A, Candida",1.94
same,LYZ ratio of PBMC absolute gene expression day 15/day 1,"Group A, Candida",2.22
same,LYZ ratio of PBMC absolute gene expression day 57/day 1,"Group A, Candida",0.93
same,MX1 ratio of PBMC absolute gene expression day 15/day 1,"Group A, Candida",1.28
same,MX1 ratio of PBMC absolute gene expression day 57/day 1,"Group A, Candida",1.34
same,NOD1 ratio of PBMC absolute gene expression day 15/day 1,"Group A, Candida",1.19
same,NOD1 ratio of PBMC absolute gene expression day 57/day 1,"Group A, Candida",1.18
same,SPP1 ratio of PBMC absolute gene expression day 15/day 1,"Group A, Candida",2.32
same,SPP1 ratio of PBMC absolute gene expression day 57/day 1,"Group A, Candida",7.34
same,STAT1 ratio of PBMC absolute gene expression day 15/day 1,"Group A, Candida",1.12
same,STAT1 ratio of PBMC absolute gene expression day 57/day 1,"Group A, Candida",3.36
same,STAT4 ratio of PBMC absolute gene expression day 15/day 1,"Group A, Candida",1.07
same,STAT4 ratio of PBMC absolute gene expression day 57/day 1,"Group A, Candida",1.76
same,TNF ratio of PBMC absolute gene expression day 15/day 1,"Group A, Candida",0.85
same,TNF ratio of PBMC absolute gene expression day 57/day 1,"Group A, Candida",1.22
same,TNFSF10 ratio of PBMC absolute gene expression day 15/day 1,"Group A, Candida",1.02
same,TNFSF10 ratio of PBMC absolute gene expression day 57/day 1,"Group A, Candida",1.52
same,TNFSF13B ratio of PBMC absolute gene expression day 15/day 1,"Group A, Candida",1.14
same,TNFSF13B ratio of PBMC absolute gene expression day 57/day 1,"Group A, Candida",1.62
same,CCL2 ratio of PBMC absolute gene expression day 15/day 1,[1],0.88
same,CCL2 ratio of PBMC absolute gene expression day 57/day 1,[1],1.21
same,CCL3 ratio of PBMC absolute gene expression day 15/day 1,[1],1.31
same,CCL3 ratio of PBMC absolute gene expression day 57/day 1,[1],4.60
same,CCL7 ratio of PBMC absolute gene expression day 15/day 1,[1],0.92
same,CCL7 ratio of PBMC absolute gene expression day 57/day 1,[1],0.75
same,CCR5 ratio of PBMC absolute gene expression day 15/day 1,[1],1.00
same,CCR5 ratio of PBMC absolute gene expression day 57/day 1,[1],0.93
same,CD80 ratio of PBMC absolute gene expression day 15/day 1,[1],0.90
same,CD80 ratio of PBMC absolute gene expression day 57/day 1,[1],0.93
same,CXCL2 ratio of PBMC absolute gene expression day 15/day 1,[1],1.02
same,CXCL2 ratio of PBMC absolute gene expression day 57/day 1,[1],2.79
same,CXCL5 ratio of PBMC absolute gene expression day 15/day 1,[1],1.24
same,CXCL5 ratio of PBMC absolute gene expression day 57/day 1,[1],6.03
same,CXCL9 ratio of PBMC absolute gene expression day 15/day 1,[1],1.12
same,CXCL9 ratio of PBMC absolute gene expression day 57/day 1,[1],0.91
same,CXCL10 ratio of PBMC absolute gene expression day 15/day 1,[1],0.82
same,CXCL10 ratio of PBMC absolute gene expression day 57/day 1,[1],0.49
same,CXCL11 ratio of PBMC absolute gene expression day 15/day 1,[1],0.53
same,CXCL11 ratio of PBMC absolute gene expression day 57/day 1,[1],0.31
same,DDX58 ratio of PBMC absolute gene expression day 15/day 1,[1],0.72
same,DDX58 ratio of PBMC absolute gene expression day 57/day 1,[1],0.94
same,FOXP3 ratio of PBMC absolute gene expression day 15/day 1,[1],1.15
same,FOXP3 ratio of PBMC absolute gene expression day 57/day 1,[1],1.11
same,GATA3 ratio of PBMC absolute gene expression day 15/day 1,[1],2.84
same,GATA3 ratio of PBMC absolute gene expression day 57/day 1,[1],2.6
same,ICAM1 ratio of PBMC absolute gene expression day 15/day 1,[1],1.05
same,ICAM1 ratio of PBMC absolute gene expression day 57/day 1,[1],0.77
same,IFNA1 ratio of PBMC absolute gene expression day 15/day 1,[1],0.80
same,IFNA1 ratio of PBMC absolute gene expression day 57/day 1,[1],1.29
same,IFNB1 ratio of PBMC absolute gene expression day 15/day 1,[1],0.65

# Source: US11957783B2, “Topical immunosensitizers to treat viral and fungal infections” (Squarex, LLC, priority 2018, dated 2024)
